Source: US20040171696A1, “Pharmaceutical composition for the treatment of the decline and/or damage of cognitive functions” (priority 2001, published 2004)

Tests used:
Male Wistar rats = assay: step through passive avoidance learning; type: in vivo, rat; details: ip, FIG. 1
Method: Male Wistar rats weighing 200-220 g were used. The animals were obtained from Charles River Co. They were kept in a room with normal 12-12 h light dark cycle (light on: 06:00) at a relative humidity of 60±10%.
The experiment was performed in a five-channel “step through”-type passive avoidance learning apparatus. The equipment consisted of two adjacent Plexi-glass boxes of 20×20×16 cm. One of them was made of regular transparent Plexi-glass and the other one was made of black, non-transparent Plexi-glass. The boxes were connected with a 7.5×8 cm passage way, equipped with a computer-controlled guillotine-door. The passage of the rats through the door was detected by infrared photocells arranged in two parallel lines in the opening of the passage way. The door was automatically closed when the animals passed through. The dark compartment was equipped with stainless steel grid floor through which electric foot shocks could be delivered to the animals. […]
The individually numbered animals were placed into the light compartment of the equipment. […] Step through latency was automatically determined. […]
After 24 h the animals were placed again in the light compartment of the test apparatus and step-through latency was measured as described at Acquisition day, except that no foot shock was applied to the animals in any group on the second day. […]

rats = details: 1 and 10 mg/kg per os; cited from earlier work
[1] = as low as 0.7 mg/kg intraperitoneal; cited from earlier work
[2] = 3 mg/kg single subcutaneous administration; cited from earlier work
[3] = per os 10 and 30 mg/kg; cited from earlier work
[4] = cited from earlier work
[5] = intraperitoneal 1 and 10 mg/kg; cited from earlier work
central 5-HT2C receptors = central 5-HT2C receptors (Homo sapiens, UniProt P28335); details: cited from earlier work
Sequence of central 5-HT2C receptors (P28335 33-458): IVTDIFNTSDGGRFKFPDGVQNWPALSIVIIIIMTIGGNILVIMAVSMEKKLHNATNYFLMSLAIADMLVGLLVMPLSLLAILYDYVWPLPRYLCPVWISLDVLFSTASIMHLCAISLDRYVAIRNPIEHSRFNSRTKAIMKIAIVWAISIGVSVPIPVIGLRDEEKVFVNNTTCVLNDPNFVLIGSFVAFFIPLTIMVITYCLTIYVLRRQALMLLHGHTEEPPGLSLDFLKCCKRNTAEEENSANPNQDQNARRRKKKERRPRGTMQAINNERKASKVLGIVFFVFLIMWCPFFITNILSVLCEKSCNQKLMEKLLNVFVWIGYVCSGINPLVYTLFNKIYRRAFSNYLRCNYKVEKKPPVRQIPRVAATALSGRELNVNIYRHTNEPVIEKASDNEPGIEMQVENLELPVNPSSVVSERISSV

central 5-HT2A receptors = central 5-HT2A receptors (Homo sapiens, UniProt P28223); details: cited from earlier work
Sequence of central 5-HT2A receptors (P28223 whole entry): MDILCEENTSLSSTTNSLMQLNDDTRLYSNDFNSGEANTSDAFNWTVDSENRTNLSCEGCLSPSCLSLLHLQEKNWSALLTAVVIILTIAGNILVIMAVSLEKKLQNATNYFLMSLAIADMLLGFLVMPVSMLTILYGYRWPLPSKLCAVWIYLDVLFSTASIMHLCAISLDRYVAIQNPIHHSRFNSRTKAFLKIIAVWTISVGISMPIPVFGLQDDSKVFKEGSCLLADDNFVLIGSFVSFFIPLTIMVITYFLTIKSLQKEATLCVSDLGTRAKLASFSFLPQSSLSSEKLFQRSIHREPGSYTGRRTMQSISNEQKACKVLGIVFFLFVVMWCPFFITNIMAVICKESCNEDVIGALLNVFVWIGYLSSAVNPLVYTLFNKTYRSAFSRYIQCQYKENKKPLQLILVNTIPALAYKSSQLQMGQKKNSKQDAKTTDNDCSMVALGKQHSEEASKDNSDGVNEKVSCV

## CN(C)CCO[C@]1(c2ccccc2)C[C@H]2CC[C@]1(C)C2(C)C.O=C(O)/C=C/C(=O)O [(1R,2S,4R)-(−)-2-(2-dimethylaminoethoxy)-2-phenyl-1,7,7-trimethyl-bicyclo[2.2.1]heptane-fumarate]
Male Wistar rats; Day 1 administration, 30 min before Acquisition, latency on Day 2
  step-through latency into the dark compartment: significantly increased
Male Wistar rats; Day 2 administration, 30 min before Retention test
  step-through latency into the dark compartment: significantly increased

## CN(C)CCO[C@]1(c2ccccc2)C[C@H]2CC[C@]1(C)C2(C)C [deramciclane, (1R,2S,4R)-(−)-2-(2-dimethylaminoethoxy)-2-phenyl-1,7,7-trimethylbicyclo[2.2.1]heptane]
rats
  effect in Vogel lick-conflict model: effective
[1]
  number of social interactions: increased the number of social interactions
[2]
  anxiolytic activity in light-dark model: showed anxiolytic activity
[3]
  activity in marble burying test: displayed significant activity
[4]; CCK agonist induced anxiety
  effect on CCK agonist induced anxiety in elevated plus-maze: antagonized CCK agonist induced anxiety
[4]; deramciclane alone
  activity in elevated plus-maze, alone: completely inactive
[5]
  effect in learned helplessness: effective
Central 5-HT2C receptors
  binding to 5-HT2C receptors: binds
Central 5-HT2A receptors
  binding to 5-HT2A receptors: binds
